Measured values reported in ChEMBL document CHEMBL4364281, “Design of wogonin-inspired selective cyclin-dependent kinase 9 (CDK9) inhibitors with potent in vitro and in vivo antitumor activity” (Eur J Med Chem, 2019).
Values after ≈ are worked out from the molar mass of the structure shown. Active and inactive are the calls of the source. The calls are words filed in the database; no cut-off is given here.

Tests used:
HepG2 = experiment: cells; conditions: Homo sapiens, HepG2, 72 h
Description: Antiproliferative activity against human HepG2 cells assessed as reduction in cell viability after 72 hrs by MTT assay

CDK9/cyclin T1 = CDK9/cyclin T1 (Homo sapiens, UniProt P50750)
CDK2/Cyclin A2 [1] = target: CDK2/Cyclin A2 (Homo sapiens, UniProt P24941+P20248)
Description: (§1) Inhibition of human CDK2/cyclin-A2 using H1 histone as substrate after 2 hrs by [gamma-33P]-ATP assay

A549 = experiment: cells; conditions: Homo sapiens, A549, 72 h
Description: Antiproliferative activity against human A549 cells assessed as reduction in cell viability after 72 hrs by MTT assay

HCT-116 = experiment: cells; conditions: Homo sapiens, HCT-116, 72 h
Description: Antiproliferative activity against human HCT116 cells assessed as reduction in cell viability after 72 hrs by MTT assay

MV4-11 [2] = experiment: cells; conditions: Homo sapiens, MV4-11, 72 h
Description: Antiproliferative activity against human MV4-11 cells assessed as reduction in cell viability after 72 hrs by MTT assay

MV4-11 [3] = experiment: Antitumor activity against human MV4-11 cells xenografted in BALB/c mouse assessed as reduction in tumour growth at 5 mg/kg, iv administered every other day for 21 days; format: functional, organism-based
CDK2/Cyclin A2 [4] = target: CDK2/Cyclin A2 (Homo sapiens, UniProt P24941)
Description: as §1

physchem [5] = conditions: methanesulfonic acid buffer, pH 4.5
Description: Solubility of compound in methanesulfonic acid buffer at pH 4.5

physchem [6] = experiment: physchem
Description: Intrinsic solubility of compound by potentiometric titration assay

physchem [7] = conditions: buffer, pH 7.4
Description: Hydrophobicity, log D of compound at pH 7.4

Chain of CDK9/cyclin T1 (O60563 whole entry): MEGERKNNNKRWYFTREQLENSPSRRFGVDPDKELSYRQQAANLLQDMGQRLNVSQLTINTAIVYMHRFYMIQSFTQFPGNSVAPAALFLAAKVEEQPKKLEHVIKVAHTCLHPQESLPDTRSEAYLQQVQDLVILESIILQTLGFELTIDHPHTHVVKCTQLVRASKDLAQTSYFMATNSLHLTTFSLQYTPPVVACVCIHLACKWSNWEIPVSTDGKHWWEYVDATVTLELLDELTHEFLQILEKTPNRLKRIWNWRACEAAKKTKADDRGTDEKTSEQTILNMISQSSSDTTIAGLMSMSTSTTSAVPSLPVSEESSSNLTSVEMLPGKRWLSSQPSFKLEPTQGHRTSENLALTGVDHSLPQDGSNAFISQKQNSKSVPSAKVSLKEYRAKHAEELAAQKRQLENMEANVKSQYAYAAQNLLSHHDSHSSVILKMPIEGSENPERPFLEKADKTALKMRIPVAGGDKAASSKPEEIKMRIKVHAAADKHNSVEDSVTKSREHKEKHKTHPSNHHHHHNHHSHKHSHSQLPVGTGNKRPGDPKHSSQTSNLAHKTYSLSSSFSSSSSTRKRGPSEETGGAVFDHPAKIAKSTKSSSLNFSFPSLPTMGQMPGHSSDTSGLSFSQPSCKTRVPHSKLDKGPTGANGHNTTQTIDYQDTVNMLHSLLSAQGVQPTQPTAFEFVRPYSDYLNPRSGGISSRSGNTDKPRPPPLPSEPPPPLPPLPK
Chain of CDK9/cyclin T1 (P50750 whole entry): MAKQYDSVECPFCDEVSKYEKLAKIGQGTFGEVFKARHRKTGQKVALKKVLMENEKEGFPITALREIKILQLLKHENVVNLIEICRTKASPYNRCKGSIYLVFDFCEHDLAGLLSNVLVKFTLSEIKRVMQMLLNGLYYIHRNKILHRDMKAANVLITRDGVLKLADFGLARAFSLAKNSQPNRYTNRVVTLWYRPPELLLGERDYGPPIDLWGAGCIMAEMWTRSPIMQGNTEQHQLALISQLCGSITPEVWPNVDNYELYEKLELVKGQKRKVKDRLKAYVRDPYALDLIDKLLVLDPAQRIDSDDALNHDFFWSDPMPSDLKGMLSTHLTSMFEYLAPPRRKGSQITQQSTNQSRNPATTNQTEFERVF

In the case of `COc1c(O)cc(O)c2c(=O)cc(-c3cccc(N4CCNCC4)c3)oc12`, the IC50 (HepG2) is reported as 9.9 µM.
Compound `COc1c(O)cc(O)c2c(=O)cc(-c3ccc(N4CCOCC4)cc3)oc12` has an IC50 (HepG2) of 78.3 µM.
For `COc1c(O)cc(O)c2c(=O)cc(-c3ccc(N4CCNCC4)cc3)oc12`, the IC50 (HepG2) was 17.9 µM.
With `COc1c(O)cc(O)c2c(=O)cc(-c3cccc(N4CCOCC4)c3)oc12` the IC50 (HepG2) was over 100 µM.
Compound `CN1CCN(c2ccc(-c3cc(=O)c4c(O)cc(O)c(OCc5ccco5)c4o3)cc2)CC1` has an IC50 (HepG2) of 7 µM.
With `O=c1cc(-c2ccc(N3CCNCC3)cc2)oc2c(OCc3ccco3)c(O)cc(O)c12` the IC50 (HepG2) was 8.3 µM.
`COc1c(O)cc(O)c2c(=O)cc(-c3ccc(N4CCCNCC4)cc3)oc12` showed an IC50 (HepG2) of 18.2 µM.
With `O=c1cc(-c2ccc(N3CCNCC3)cc2)oc2c(OC3CCNC3)c(O)cc(O)c12` (stereo not given) the IC50 (HepG2) was over 100 µM.
For `CC(C)Oc1c(O)cc(O)c2c(=O)cc(-c3ccc(N4CCNCC4)cc3)oc12`, the IC50 (CDK9/cyclin T1) was 94.1 nM, the IC50 (CDK2/Cyclin A2 [1]) was “Not Active” and the IC50 (HepG2) was 18 µM. The IC50 (A549) was 5.5 µM, the IC50 (HCT-116) was 3.4 µM and the IC50 (MV4-11 [2]) was 6.1 µM.
Work on `COc1c(O)cc(O)c2c(=O)cc(-c3cccc(N4CCCNCC4)c3)oc12` yielded an IC50 (HepG2) of 21.7 µM.
Compound `COc1c(O)cc(O)c2c(=O)cc(-c3ccc(N4CCN(C)CC4)cc3)oc12` has an IC50 (HepG2) of 6.6 µM.
Work on `CN1CCN(c2ccc(-c3cc(=O)c4c(O)cc(O)c(OC5CCNC5)c4o3)cc2)CC1` (stereo not given) yielded an IC50 (HepG2) of over 100 µM.
Compound `COc1c(O)cc(O)c2c(=O)cc(-c3cccc(N4CCN(C)CC4)c3)oc12` has an IC50 (HepG2) of 13.1 µM.
`O=c1cc(-c2ccc(N3CCNCC3)cc2)oc2c(OC3CCCC3)c(O)cc(O)c12` showed an IC50 (HepG2) of 5.3 µM.
For `COc1c(O)cc(O)c2c(=O)cc(-c3ccccc3Cl)oc12`, the IC50 (HepG2) was over 100 µM.
In the case of `COc1c(O)cc(O)c2c(=O)cc(-c3ccc([N+](=O)[O-])cc3)oc12`, the IC50 (HepG2) is reported as over 100 µM.
Work on `O=c1cc(-c2ccc(N3CCNCC3)cc2)oc2c(OC3CCCCC3)c(O)cc(O)c12` yielded an IC50 (HepG2) of 22.8 µM.
With `COc1c(O)cc(O)c2c(=O)cc(-c3ccccc3Br)oc12` the IC50 (HepG2) was 33.5 µM.
In the case of `COc1cccc2c1C(=O)c1c(O)c3c(c(O)c1C2=O)C[C@@](O)(C(=O)CO)C[C@@H]3O[C@H]1C[C@H](N)[C@H](O)[C@H](C)O1`, the inhibition (MV4-11 [3]) is reported as “Active”.
With `CC(C)Oc1c(O)cc(O)c2c(=O)cc(-c3ccc(N4CCN(C)CC4)cc3)oc12` the IC50 (CDK9/cyclin T1) was 179 nM, the IC50 (CDK2/Cyclin A2 [1]) was “Not Active” and the IC50 (HepG2) was 14.8 µM. For the same compound, the IC50 (A549) was 4.1 µM, the IC50 (HCT-116) was 12.8 µM and the IC50 (MV4-11 [2]) was 6.3 µM.
For `COc1c(O)cc(O)c2c(=O)cc(-c3ccc(N4CCCC4)cc3)oc12`, the IC50 (HepG2) was over 100 µM.
Compound `Cc1n[nH]c(C)c1Oc1c(O)cc(O)c2c(=O)cc(-c3ccc(N4CCNCC4)cc3)oc12` has an IC50 (CDK9/cyclin T1) of 10.8 nM, an IC50 (CDK2/Cyclin A2 [4]) of 1040 nM and an IC50 (HepG2) of 8.5 µM. The IC50 (A549) was 5.5 µM, the IC50 (HCT-116) was 4.8 µM and the IC50 (MV4-11 [2]) was 4.4 µM. It also gave a solubility (physchem [5]) of 30 µg/mL (≈ 66.9 µM), a solubility (physchem [6]) of 1 µg/mL (≈ 2.23 µM) and a logD (physchem [7]) of 2.91.
`COc1c(O)cc(O)c2c(=O)cc(-c3ccccc3C(F)(F)F)oc12` showed an IC50 (HepG2) of over 100 µM.
Work on `Cc1n[nH]c(C)c1Oc1c(O)cc(O)c2c(=O)cc(-c3ccc(N4CCN(C)CC4)cc3)oc12` yielded an IC50 (CDK9/cyclin T1) of 12.7 nM, an IC50 (CDK2/Cyclin A2 [4]) of 830 nM and an IC50 (HepG2) of 6.3 µM. It also gave an IC50 (A549) of 2.5 µM, an IC50 (HCT-116) of 3.3 µM and an IC50 (MV4-11 [2]) of 2.2 µM.
`CCN(CC)c1ccc(-c2cc(=O)c3c(O)cc(O)c(OC)c3o2)cc1` gave an IC50 (HepG2) of 6.4 µM.
`COc1c(O)cc(O)c2c(=O)cc(-c3cccc(Br)c3)oc12` gave an IC50 (HepG2) of 38.2 µM.
Compound `CN1CCC(Oc2c(O)cc(O)c3c(=O)cc(-c4ccc(N5CCNCC5)cc4)oc23)CC1` has an IC50 (HepG2) of 39.4 µM.
Compound `CN1CCN(c2ccc(-c3cc(=O)c4c(O)cc(O)c(Oc5c[nH][nH]c5=O)c4o3)cc2)CC1` has an IC50 (HepG2) of 8.1 µM.
For `CN1CCN(c2ccc(-c3cc(=O)c4c(O)cc(O)c(OC5CCCC5)c4o3)cc2)CC1`, the IC50 (HepG2) was 15.8 µM.
`CN1CCC(Oc2c(O)cc(O)c3c(=O)cc(-c4ccc(N5CCN(C)CC5)cc4)oc23)CC1` gave an IC50 (HepG2) of 6.7 µM.
`CN1CCN(c2ccc(-c3cc(=O)c4c(O)cc(O)c(OC5CCCCC5)c4o3)cc2)CC1` showed an IC50 (HepG2) of 27.8 µM.
In the case of `COc1c(O)cc(O)c2c(=O)cc(-c3cccc(C(F)(F)F)c3)oc12`, the IC50 (HepG2) is reported as over 100 µM.
